# “Also recorded” adds a separate entry of the source.
# Assays:
# [1] = target: Ire1α endoribonuclease activity (Homo sapiens, UniProt O75460); settings: cited from earlier work
# PKD mice = PKD mice / preclinical models, model not further specified; assay type: in vivo, mouse
# Description: FIGS. 22A-22C: Irela inhibitor prevents cyst growth in preclinical models.
# FIG. 36: Gene inactivation between P28 and P42. Treatment (0.5 mg/kg; 1×/2 wks) between 6-18 weeks of age.
# The basal activity of spliced active XBP1s appears to be a protective survival factor for PC1-null cells that form cysts. […] Thus, specific pharmacological inhibition of the endoribonuclease activity of IRE1α, by inhibiting its ability to splice XBP1 to active XBP1s, should be beneficial in slowing cyst growth in ADPKD. This hypothesis was tested pharmacologically by inhibiting IRE1α endoribonuclease activity using toyocamycin, which is a potent IRE1α endoribonuclease inhibitor.
# [2] = Phase 1 trial; no changes in Hb, WBC, Pt, AP, SGOT and BUN; cited from earlier work
# [3] = test system: Pkd1^R2216W/flox; Pkhd1-Cre mice; assay: Neonatal ADPKD model with Pkd1 R2216W missense mutation in trans with floxed allele; assay type: in vivo, mouse
# Description: Effect of toyocamycin were investigated in a relevant ADPKD model. For this a mouse model was constructed with a human Pkd1 missense mutation (R2216W) in trans with a floxed allele on a Pkhd1-Cre and Pax8-rtTA; tet-OCre background.
# (§1) The present study first tested toyocamycin in Pkd1^flox/flox; Pax8rtTA; tet-OCre mice. Animals were given doxycycline water between P28 to P42 then treatment was started from week 6 until week 18 (0.5 mg/kg; once every 2 weeks; 6 i.p. injections). […] The present study recapitulated these findings in another slow progressing adult ADPKD model. A compound mutant model with a floxed Pkd1 allele in trans with a human pathogenic hR2220W (mR2216W) missense mutation that causes defects in PC1 GPS cleavage and trafficking was used. Pkd1^R2216W/flox line was crossed with either Pkhd1-Cre or Pax8rtTA; Tet-OCre to generate neonatal or adult doxycycline inducible lines respectively.
# cystic cell = assay: Cystic cell viability (FIGS. 18A-18B); assay type: cell-based
# nucleotide incorporation = settings: up to concentrations of 10 uM; cited from earlier work
# [4] = test system: Pkd1^R2216W/flox; Pax8rtTA; tet-OCre mice; assay: Adult ADPKD model with Pkd1 R2216W missense mutation in trans with floxed allele; assay type: in vivo, mouse
# Description: In order to examine whether this drug leads to disease modifying effects in the adult counterpart of this model, Pkd1^RW/fl; Pax8^rtTA; Tet-OCre mice were generated. In this mice the Cre recombinase is turned on throughout the nephron (except for the PT S3 segment) using a doxycycline inducible system. The mice received doxycycline in the drinking water from P28-P42to induce Cre and inactivate Pkd1 and were then injected with toyocamycin once every 2weeks starting at 6 weeks of age.
# as §1
# Finally, the present study examined the status of apoptosis in kidneys isolated from Pkd1^R2216W/flox; Pax8rtTA; tet-OCre mice treated with toyocamycin between week 12 to 18 (FIG. 34). […] Finally, the present study set forth to examine whether the effect seen in mice can be recapitulated with a relevant cell line model. Although cell line models for PKD are average mimics of the animal models, they do provide opportunities for a closer look at mechanisms of genotype-phenotype relationships in the context of programmed cell death. The present study used a previously described cell line i.e. PN24; Pkd1^−/−) as the starting point for inactivation of XBP1 via CRISPR/Cas9. At baseline, no differences in cell viability among the 3 genotypes i.e. Pkd1^het, Pkd1^−/−, and Pkd1/XBP1 DKO were observed. The present study then compared the response of Pkd1^+/−, Pkd1^−/−, and Pkd1/XBP1 DKO cells to a sensitized background induced by treatment with 11β-dichloro, an ROS inducer.
# [5] = test system: Pkd1^flox/flox; Pax8rtTA; tet-OCre mice; assay: Adult ADPKD model, complete loss of function (doxycycline-induced Pkd1 deletion); assay type: in vivo, mouse; settings: for KW/BW ratio: p=0.03
# Excerpt: FIGS. 19A-19B: Ire1α inhibitor improves disease progression in an adult ADPKD model. Adult onset model with complete loss of function (Pkd1fl/fl;Pax8rtTA;tet-OCre). […]
# as §1, with “Animals were given doxycycline water between P28 to P42 then treatment was started from week 6 until week 18 (0.5 mg/kg; once every 2 weeks; 6 i.p. injections).” left out
# IRE1α kinase activity = IRE1α kinase activity (Homo sapiens, UniProt O75460); settings: Ri, et al., 2012; cited from earlier work
# [6] = mouse, in vivo, listed as Irela inhibitor
# [7] = treatment from p9 to p16 (once/week), vs vehicle treated animals
# [8] = 0.5 mg/kg i.p. once every 2 weeks, between week 6 and 18 (6 doses), p<0.001
# Ire1α endoribonuclease activity, sequence (O75460 19-977): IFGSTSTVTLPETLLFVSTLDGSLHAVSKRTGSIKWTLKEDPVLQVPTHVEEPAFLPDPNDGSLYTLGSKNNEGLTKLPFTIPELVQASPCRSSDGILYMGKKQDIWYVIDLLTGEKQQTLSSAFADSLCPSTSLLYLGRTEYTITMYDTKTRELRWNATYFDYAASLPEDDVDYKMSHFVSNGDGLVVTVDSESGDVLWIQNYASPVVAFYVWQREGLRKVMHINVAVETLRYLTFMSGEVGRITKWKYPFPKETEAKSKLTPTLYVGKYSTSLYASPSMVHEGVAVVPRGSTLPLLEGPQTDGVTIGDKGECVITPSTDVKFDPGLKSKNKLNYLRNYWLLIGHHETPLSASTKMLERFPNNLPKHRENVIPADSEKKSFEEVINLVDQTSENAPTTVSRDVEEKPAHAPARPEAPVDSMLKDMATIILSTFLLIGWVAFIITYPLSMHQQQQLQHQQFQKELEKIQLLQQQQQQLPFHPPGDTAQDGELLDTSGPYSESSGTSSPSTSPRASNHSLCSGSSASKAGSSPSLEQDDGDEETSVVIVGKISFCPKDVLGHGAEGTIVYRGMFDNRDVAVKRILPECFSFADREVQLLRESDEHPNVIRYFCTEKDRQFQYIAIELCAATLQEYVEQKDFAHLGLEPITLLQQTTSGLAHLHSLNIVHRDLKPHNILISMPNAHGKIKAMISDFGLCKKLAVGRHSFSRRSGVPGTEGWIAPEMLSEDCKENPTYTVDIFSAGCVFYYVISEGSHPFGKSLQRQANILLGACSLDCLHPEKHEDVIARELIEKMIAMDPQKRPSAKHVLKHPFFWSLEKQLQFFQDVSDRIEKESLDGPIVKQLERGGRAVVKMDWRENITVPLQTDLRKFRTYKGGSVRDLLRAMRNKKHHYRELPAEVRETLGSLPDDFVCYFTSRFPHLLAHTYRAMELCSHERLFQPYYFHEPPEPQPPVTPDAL
# IRE1α kinase activity, sequence (O75460 19-977): as above
smiles,measurement,setting,value
"N#Cc1cn([C@@H]2O[C@H](CO)C(O)C2O)c2ncnc(N)c12 (stereo partly drawn) [toyocamycin, 4-Aminopyrrolo[2,3-d]pyrimidine-5-carbonitrile 7-(β-D-ribofuranoside)]",inhibition of IRE1α endoribonuclease activity,"[1]; Ri, et al., 2012",potent inhibitor
same,IC50,"[1]; in vitro, read-out: IC50, inhibition of Ire1α endoribonuclease activity",~100 nM
same,dependence of the effect on Ire1,"PKD mice; FIG. 36, 0.5 mg/kg, 1×/2 wks between 6-18 weeks of age",depends on the presence of Ire1
same,apoptosis in cyst cells with PC1 mutation,PKD mice; FIGS. 22A-22C,Enhanced apoptosis
same,systemic toxicity (body weight),PKD mice; FIGS. 22A-22C,No apparent systemic toxicity
same,collagen deposition,PKD mice; FIGS. 24A-24B,prevents
same,BUN (kidney function),"PKD mice; mouse, in vivo",reduction
same,kidney to body weight ratio,"PKD mice; mouse, in vivo",dramatic reduction
same,serum creatinine,"PKD mice; mouse, in vivo",reduction
same,BUN (kidney function),PKD mice; [6],Normalized kidney function
same,kidney to body weight ratio,PKD mice; [6],Reduced cyst growth
same,systemic side effects,[2],no apparent systemic side effects
same,disease at P16,[3]; 0.5 mg/kg at P10,significantly improved disease
same,KW/BW ratio,"[3]; 1 dose 0.5 mg/kg i.p. at P10, assessed at P16, p<0.001",dramatic improvement
same,BUN,"[3]; 1 dose 0.5 mg/kg i.p. at P10, assessed at P16, p<0.05",dramatic improvement
same,cystic phenotype (morphological and functional parameters),[3]; FIG. 6,dramatic improvement
same,BUN (marker of kidney function),[3]; [7],dramatic decrease
same,KW/BW ratio,[3]; [7],dramatic decrease
same,cystic cell viability,cystic cell,inhibits
same,impact on nucleotide incorporation,nucleotide incorporation,without any impact
same,BUN,[4]; [8],almost a complete rescue; also recorded: dramatic improvement
same,KW/BW ratio,[4]; [8],almost a complete rescue; also recorded: dramatic improvement
same,cyst growth,"[4]; 0.5 mg/kg, 1×/2 wks between 6-18 weeks of age",prevents
same,apoptosis of cyst lining epithelia (TUNEL),"[4]; 0.5 mg/kg, 1×/2 wks, listed as Ire1α inhibitor",causes apoptosis
same,disease progression,"[4]; once every 2 weeks starting at 6 weeks of age, vs vehicle treated animals",almost complete inhibition
same,effect in cells where Cre is not expressed (selectivity),"[4]; preliminary analysis, data not shown",restricted to Pkd1 null segments
same,apoptosis in kidneys (TUNEL),"[4]; treated between week 12 to 18, proximal tubules marked by LTA",specific TUNEL-positive signal in cyst lining cells
same,levels of spliced XBP1 (qPCR),"[4]; treated vs. untreated mice, target engagement",lower; also recorded: decreased expression
same,cystic phenotype (morphological and functional parameters),"[4]; treatment from 6 weeks until 18 weeks age, FIG. 7",dramatic improvement
same,body weight,"[4]; untreated vs. treated animals, once every 2 weeks, week 6 to 18",did not differ
same,liver toxicity,"[5]; 0.5 mg/kg IP, 1×/week, from 13 wks until 18 wks",does not cause liver toxicity
same,KW/BW ratio,"[5]; 0.5 mg/kg every 2 weeks between 12 and 18, FIGS. 31A-31B",decrease
same,KW/BW ratio,"[5]; 0.5 mg/kg i.p. once every 2 weeks, week 6 until week 18, vs untreated mice",significant decrease
same,disease progression,"[5]; treatment from 6 to 18 weeks, started immediately after gene inactivation",improves
same,inhibition of IRE1α kinase activity,IRE1α kinase activity,does not inhibit

# Source: patent US20250082663A1, “COMPOUNDS AND METHODS FOR TREATING OR […] DOMINANT POLYCYSTIC KIDNEY DISEASE (ADPKD), AUTOSOMAL DOMINANT […] DISEASE (ADPLD) AND/OR AUTOSOMAL RECESSIVE POLYCYSTIC KIDNEY DISEASE (ARPKD)” (YALE UNIVERSITY, priority 2021, published 2025)
